Measured values taken from the NIST ThermoML archive (doi:10.1016/j.tca.2013.05.022).
Numbers after ± are expanded uncertainties.

Experiments:
[1] = relative permittivity at zero frequency (dimensionless); φn = volume fraction of the nth substance listed; conditions: Liquid, Parallel plate capacitor
[2] = relative permittivity at zero frequency (dimensionless); conditions: Liquid, Parallel plate capacitor

CC(C)O [propan-2-ol] + Cc1ccccc1
relative permittivity at zero frequency, [1], 307116 kPa
Conditions	φ1 = 0.1	φ1 = 0.2	φ1 = 0.3	φ1 = 0.4	φ1 = 0.5	φ1 = 0.6	φ1 = 0.7	φ1 = 0.8	φ1 = 0.9	φ1 = 1
303 K	3.55 ± 0.95	4.83 ± 0.95	5.98 ± 0.95	6.85 ± 0.95	8.06 ± 0.95	10.1 ± 0.95	12.09 ± 0.95	14.27 ± 0.95	16.36 ± 0.95	18.25 ± 0.95
313 K	3.12 ± 0.95	4.48 ± 0.95	5.55 ± 0.95	6.45 ± 0.95	7.75 ± 0.95	9.73 ± 0.95	11.75 ± 0.95	13.65 ± 0.95	15.98 ± 0.95	17.75 ± 0.95
323 K	3 ± 0.95	4.12 ± 0.95	5.13 ± 0.95	6.15 ± 0.95	7.46 ± 0.95	9.45 ± 0.95	11.24 ± 0.95	13.34 ± 0.95	15.35 ± 0.95	16.57 ± 0.95

CCO [ethanol]
[2], 101 kPa
Conditions	relative permittivity at zero frequency
303 K	24.26 ± 0.97
313 K	23.85 ± 0.95
323 K	23.25 ± 0.95

CO [methanol] + Cc1ccccc1
[1], 101 kPa, φ1 = 1
Conditions	relative permittivity at zero frequency
303 K	33.19 ± 1.3
313 K	32.35 ± 1.3
323 K	31.98 ± 1.3

Cc1ccccc1 [toluene] + CCO
relative permittivity at zero frequency, [1], 101 kPa
Conditions	φ2 = 0.1	φ2 = 0.2	φ2 = 0.3	φ2 = 0.4	φ2 = 0.5	φ2 = 0.6	φ2 = 0.7	φ2 = 0.8	φ2 = 0.9
303 K	3.97 ± 0.95	5.64 ± 0.95	7.43 ± 0.95	8.29 ± 0.95	10.1 ± 0.95	12.53 ± 0.95	15.27 ± 0.95	18.07 ± 0.95	21.14 ± 0.95
313 K	3.42 ± 0.95	5.27 ± 0.95	6.34 ± 0.95	7.98 ± 0.95	9.7 ± 0.95	12.26 ± 0.95	14.78 ± 0.95	17.72 ± 0.95	20.78 ± 0.95
323 K	2.95 ± 0.95	4.91 ± 0.95	6.14 ± 0.95	7.87 ± 0.95	9.2 ± 0.95	12.07 ± 0.95	14.54 ± 0.95	17.28 ± 0.95	20.14 ± 0.95

CC(C)O [propan-2-ol]
[2], 307116 kPa
Conditions	relative permittivity at zero frequency
303 K	18.25 ± 0.95
313 K	17.75 ± 0.95
323 K	16.57 ± 0.95

Cc1ccccc1 [toluene] + CCCO
relative permittivity at zero frequency, [1], 101 kPa
Conditions	φ2 = 0.1	φ2 = 0.2	φ2 = 0.3	φ2 = 0.4	φ2 = 0.5	φ2 = 0.6	φ2 = 0.7	φ2 = 0.8	φ2 = 0.9
303 K	3.28 ± 0.95	4.67 ± 0.95	6.29 ± 0.95	7.59 ± 0.95	8.79 ± 0.95	11.44 ± 0.95	13.76 ± 0.95	15.84 ± 0.95	18.08 ± 0.95
313 K	3.17 ± 0.95	4.59 ± 0.95	6.18 ± 0.95	7.23 ± 0.95	8.17 ± 0.95	11.18 ± 0.95	13.37 ± 0.95	15.59 ± 0.95	17.87 ± 0.95
323 K	2.98 ± 0.95	4.42 ± 0.95	5.95 ± 0.95	6.89 ± 0.95	7.88 ± 0.95	10.89 ± 0.95	13.18 ± 0.95	15.29 ± 0.95	17.24 ± 0.95

CO [methanol]
[2], 101 kPa
Conditions	relative permittivity at zero frequency
303 K	33.19 ± 1.3
313 K	32.35 ± 1.3
323 K	31.98 ± 1.3

CCCO [propan-1-ol] + Cc1ccccc1
[1], 101 kPa, φ1 = 1
Conditions	relative permittivity at zero frequency
303 K	19.95 ± 0.95
313 K	18.65 ± 0.95
323 K	17.82 ± 0.95

CCO [ethanol] + Cc1ccccc1
[1], 101 kPa, φ1 = 1
Conditions	relative permittivity at zero frequency
303 K	24.26 ± 0.97
313 K	23.85 ± 0.95
323 K	23.25 ± 0.95

Cc1ccccc1 [toluene] + CO
relative permittivity at zero frequency, [1], 101 kPa
Conditions	φ2 = 0.1	φ2 = 0.2	φ2 = 0.3	φ2 = 0.4	φ2 = 0.5	φ2 = 0.6	φ2 = 0.7	φ2 = 0.8	φ2 = 0.9
303 K	5.82 ± 0.95	7.85 ± 0.95	10.56 ± 0.95	12.89 ± 0.95	15.86 ± 0.95	19.25 ± 0.95	22.54 ± 0.95	25.91 ± 1	29.34 ± 1.2
313 K	5.03 ± 0.95	7.57 ± 0.95	10.29 ± 0.95	12.66 ± 0.95	15.11 ± 0.95	18.71 ± 0.95	22.17 ± 0.95	25.38 ± 1	28.83 ± 1.1
323 K	4.87 ± 0.95	6.92 ± 0.95	9.82 ± 0.95	12.14 ± 0.95	14.72 ± 0.95	18.27 ± 0.95	21.67 ± 0.95	24.95 ± 1	28.42 ± 1.1

CCCO [propan-1-ol]
[2], 101 kPa
Conditions	relative permittivity at zero frequency
303 K	19.95 ± 0.95
313 K	18.65 ± 0.95
323 K	17.82 ± 0.95
